US9926602B2, “Recurrent gene fusions in prostate cancer” (THE REGENTS OF THE UNIVERSITY OF MICHIGAN, priority 2009, dated 2018)

Test system: UBE2L3-KRAS fusion protein
Test: Western blot of UBE2L3-KRAS fusion protein with or without bortezomib
Assay type: cell-based, human
Experimental: The prostate cancer cell lines DU145 were transfected with siRNA duplex (Dharmacon, Lafayette, Colo., USA) against UBE2L3 (5′-CCACCGAAGATCACATTTA-3′; SEQ ID NO:1), KRAS (5′-GAAGTTATGGAATTCCTTT-3′; SEQ ID NO:2) or the fusion junction (5′-CCGACCAAGGCCTGCTGAA-3′; SEQ ID NO:3) by oligofectamine (Invitrogen). DU145 transfected with non-targeting siRNA and RWPE cells was used as negative control. Post 48 hours transfection, cells were homogenized in NP40 lysis buffer (50 mM Tris-HCl, 1% NP40, pH 7.4, Sigma, St. Louis, Mo.), and complete proteinase inhibitor mixture (Roche, Indianapolis, Ind.). Ten micrograms of each protein extract were boiled in sample buffer, separated by SDS-PAGE, and transferred onto Polyvinylidene Difluoride membrane (GE Healthcare, Piscataway, N.J.). The membrane was incubated for one hour in blocking buffer [Tris-buffered saline, 0.1% Tween (TBS-T), 5% nonfat dry milk] and incubated overnight at 4° C. with the following antibodies: anti-RAS mouse monoclonal (1:1000 in blocking buffer, Millipore Cat #: 05-516), anti-KRAS rabbit polyclonal (1:1000, Proteintech Group Inc., Cat #: 12063-1-AP) and anti-beta Actin mouse monoclonal (1:5000, Sigma Cat #: A5441) antibodies. Following three washes with TBS-T, the blot was incubated with horseradish peroxidase-conjugated secondary antibody and the signals visualized by enhanced chemiluminescence system as described by the manufacturer (GE Healthcare). To test fusion protein expression in multiple prostate derived cell lines, lysates from DU145, PrEC, RWPE, 22RV1, VCaP, PC3 either untreated or treated with 500 nM bortezomib for 12 hours were used. Bortezomib treated HEK cells over-expressing UBE2L3-KRAS fusion protein was used as a positive control. […] For ERK activation analysis NIH 3T3 cells were starved for 12 hours before immunoblot analysis using phospho erk1/2 antibody. All antibodies for the MAPK signaling proteins were purchased from Cell Signaling Technologies.

Compound: CC(C)C[C@H](NC(=O)[C@H](Cc1ccccc1)NC(=O)c1cnccn1)B(O)O [bortezomib]
- levels of UBE2L3-KRAS protein expression (DU145 cells incubated with bortezomib): enhanced
- expression of the UBE2L3-KRAS fusion protein (HEK293 cells over-expressing UBE2L3-KRAS construct, in the presence of bortezomib): clearly apparent
- expression of the UBE2L3-KRAS fusion protein (RWPE cells overexpressing UBE2L3-KRAS): required
